In data set [1] the target is T1, Nuclear factor erythroid 2-related factor 2 (Homo sapiens) (UniProt Q16236).
T1 sequence (whole entry): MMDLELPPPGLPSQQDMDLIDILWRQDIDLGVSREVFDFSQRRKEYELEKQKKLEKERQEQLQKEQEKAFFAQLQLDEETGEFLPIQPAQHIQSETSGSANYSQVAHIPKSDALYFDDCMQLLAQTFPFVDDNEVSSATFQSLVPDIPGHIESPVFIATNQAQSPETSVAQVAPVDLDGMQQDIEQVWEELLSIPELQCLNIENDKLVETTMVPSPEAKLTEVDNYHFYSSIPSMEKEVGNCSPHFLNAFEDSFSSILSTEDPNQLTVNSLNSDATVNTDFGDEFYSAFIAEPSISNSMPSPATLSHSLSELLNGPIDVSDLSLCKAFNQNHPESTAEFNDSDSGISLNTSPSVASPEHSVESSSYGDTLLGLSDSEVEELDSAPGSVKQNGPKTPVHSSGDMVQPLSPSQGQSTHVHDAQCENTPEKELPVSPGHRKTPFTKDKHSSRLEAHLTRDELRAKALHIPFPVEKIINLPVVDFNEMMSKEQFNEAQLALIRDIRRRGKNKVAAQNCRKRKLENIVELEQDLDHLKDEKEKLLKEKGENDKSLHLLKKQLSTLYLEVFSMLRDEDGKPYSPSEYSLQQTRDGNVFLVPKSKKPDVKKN
Nature of the data set: Activation of Nrf2 in human HepG2 cells at 5 uM incubated for 12 hrs by ARE-driven luciferase reporter gene assay relative to control. The format is cell-based.

For data set [2], the target named is T1, Nuclear factor erythroid 2-related factor 2 (Homo sapiens). Nature of the data set: Activation of Nrf2 in human HepG2 cells at 20 uM incubated for 12 hrs by ARE-driven luciferase reporter gene assay relative to control. The format is cell-based. On the technique in general: A reporter such as luciferase makes a cellular process visible.
Data set [3] has the same target. Put plainly: Activation of Nrf2 in human HepG2 cells at 80 uM incubated for 12 hrs by ARE-driven luciferase reporter gene assay relative to control. The format is cell-based.
Data set [4] has the same target. Nature of the data set: Activation of Nrf2 in human HepG2 cells at 40 uM incubated for 12 hrs by ARE-driven luciferase reporter gene assay relative to control. The format is cell-based.
The target is the same in data set [5]. Nature of the data set: Activation of Nrf2 in human HepG2 cells at 2 uM incubated for 12 hrs by ARE-driven luciferase reporter gene assay relative to control. The format is cell-based.
Data set [6] has the same target. Nature of the data set: Activation of Nrf2 in human HepG2 cells at 0.2 uM incubated for 12 hrs by ARE-driven luciferase reporter gene assay relative to control. The format is cell-based.
Data set [7] shares this target. Put plainly: Activation of Nrf2 in human HepG2 cells at 0.02 uM incubated for 12 hrs by ARE-driven luciferase reporter gene assay relative to control. The format is cell-based.
Data set [8] shares this target. Nature of the data set: Activation of Nrf2 in human HepG2 cells at 160 uM incubated for 12 hrs by ARE-driven luciferase reporter gene assay relative to control. The format is cell-based.
Data set [9] is described as follows: Cytotoxicity against human NCM460 cells assessed as cell viability at low to medium concentration after 24 hrs by MTT assay relative to control. The format is cell-based. The note with it: ncm460, 24 h. In general terms: Formazan colour is commonly taken as a measure of viable cells.
Data set [10] concerns NCM460. Nature of the data set: Cytoprotective activity against H2O2-induced cytotoxicity in human NCM460 cells assessed as cell viability pretreated at 20 uM for 24 hrs followed by H2O2 challenge for 12 hrs by MTT assay (reference value: 50%). The format is functional.
Data set [11] can be described thus: Cytotoxicity against rat PC12 cells assessed as cell viability at low to medium concentration after 24 hrs by MTT assay relative to control. The note with it: pc-12, 24 h. The format is cell-based.
Data set [12] can be described thus: Cytotoxicity against human L02 cells assessed as cell viability at low to medium concentration after 24 hrs by MTT assay relative to control. The format is cell-based. The note with it: l02, 24 h.
Data set [13] has as its system PC-12. Put plainly: Cytoprotective activity against H2O2-induced cytotoxicity in rat PC12 cells assessed as cell viability pretreated at 20 uM for 24 hrs followed by H2O2 challenge for 12 hrs by MTT assay (reference value: 50%). The format is functional.
Data set [14] concerns L02. Put plainly: Cytoprotective activity against H2O2-induced cytotoxicity in human L02 cells assessed as cell viability pretreated at 20 uM for 24 hrs followed by H2O2 challenge for 12 hrs by MTT assay (reference value: 50%). The format is functional.

Molecules are shown by their SMILES. Calls of active or inactive are those of the source. The rule behind the calls is not given here.

Regarding `COc1ccc(Cl)cc1-c1nc(-c2ccc3oc(C)nc3c2)no1`, the values for the fold change (FC) in data set [1] and in data set [2] were 3.62 and 3.72, respectively.

With `CCOc1ccc(-c2nc(-c3ccc(-c4csc(C)n4)cc3)no2)c(CC)c1`, the figures for the fold change (FC) in [1] and in data set [2] were 1.09 and 3.08, respectively.

Regarding `CCOc1ccc(-c2nc(-c3ccc4[nH]c(=O)n(C5CCCC5)c4c3)no2)cc1OCC`, the results for the fold change (FC) in [1] and in data set [2] were 1.31 and 3.38, respectively.

For the compound `Cc1nc2cc(-c3noc(-c4cccc(C#N)c4)n3)ccc2o1`, the figures for the fold change (FC) in data set [1] and in data set [2] were 4.76 and 2.6, respectively.

For the compound `Clc1cc(-c2nc(-c3ccc4oc(-c5ccccc5)nc4c3)no2)ccn1`, the fold change (FC) in data set [3] is 9.84; in data set [4], 6.38; in [5] it was 4.64; in data set [1], 4.64; in [6] it was 3.41; in data set [7] it was 3.08. For the same compound, the figures for the fold change (FC) in data set [2] and in data set [8] were 6.64 and 10.5, respectively.

As for `CC(C)n1c(=O)[nH]c2cc(-c3noc(/C=C/c4ccccc4)n3)ccc21`, the fold change (FC) in data set [1] worked out at 3.19; in [2] it was 5.19.

As for `Cc1nc2cc(-c3noc(-c4ccc5[nH]cnc5c4)n3)ccc2o1`, the fold change (FC) in [3] was found to be 4.88; in [4], 8.94; in data set [5], 3.95; in [1] it was 4.38; in [6], 2.35; in data set [7], 1.89. In addition, the fold change (FC) in data set [2] was determined as 7.98; in [8] it was 2.51.

Regarding `CC(C)(C)c1cc(O)ccc1O` [E319], the fold change (FC) was found to be 5.2 in [3]; 2.14 in data set [4]; 1.24 in [5]; 1.25 in data set [6]; 1.18 in data set [7]; 8.46 in [8]. Moreover, the Activity result in data set [9], in [11] and in data set [12] was “Non-toxic” in each case. Further, the outcome in data set [10], in data set [13] and in data set [14] was Active.

Turning to `Cc1nc2cc(-c3noc(Cc4ccc(F)cc4)n3)ccc2o1`, the fold change (FC) in data set [1] turned out to be 1.73; in data set [2], 3.2.

Consider `Cc1nc2cc(-c3noc(/C=C/c4ccccc4)n3)ccc2o1`, for which the fold change (FC) in data set [3] was found to be 7.31; in [4] it was 6.78; in [5], 4.11; in [1], 4.64; in data set [6], 3.14; in [7] it was 2.26. In addition, the results for the fold change (FC) in data set [2] and in data set [8] were 5.46 and 7.64, respectively.

For the compound `CCc1cc(O)nc(SCc2nc(-c3ccc(Cl)c(F)c3)no2)n1`, the fold change (FC) stood at 1.38 in [1] and 4.28 in data set [2].

As to `CC(C)n1c(=O)[nH]c2cc(-c3noc(C4CCCCC4)n3)ccc21`, the fold change (FC) in [3] is 6.17; in data set [4], 7.33; in data set [5], 7.51; in data set [1], 4.98; in data set [6], 6.14; in data set [7], 3.81. In addition, the fold change (FC) in data set [2] turned out to be 6.28; in data set [8], 5.74.

With `CCCn1c(=O)[nH]c2cc(-c3noc(C4CCCC4)n3)ccc21`, the fold change (FC) in data set [3] was 6.01; in data set [4], 7.03; in data set [5], 4.86; in data set [1], 3.2; in data set [6], 4.19; in data set [7] it was 3.71. Besides, the fold change (FC) was determined as 7.27 in data set [2] and 8.4 in data set [8].

As to `Cn1cnc2ccc(-c3noc(-c4ccc5cc[nH]c5c4)n3)cc21`, the fold change (FC) came out at 12.1 in [3]; 12.4 in data set [4]; 3.35 in data set [5]; 4.1 in [1]; 1.5 in data set [6]; 1.09 in [7]. The fold change (FC) turned out to be 5.47 in data set [2] and 8.73 in data set [8].

In the case of `CCc1ccc(-c2nc(-c3ccc4oc(C)nc4c3)no2)cc1`, the fold change (FC) stood at 2.36 in data set [1] and 4.52 in data set [2].

With `CN(C)C=O` [DIMETHYLFORMAMIDE], the fold change (FC) in data set [4] worked out at 2.97; in data set [5], 1.1; in data set [6] it was 1; in data set [7], 0.82; in data set [2] it was 1.65. Also, the Activity result in [9], in data set [11] and in data set [12] was “Non-toxic” each time. The outcome in data set [10], in data set [13] and in [14] was Active.

As for `c1ccc(-c2nc3cc(-c4noc(-c5ccc6[nH]cnc6c5)n4)ccc3o2)cc1`, the fold change (FC) stood at 8.23 in [3]; 5.43 in data set [4]; 3.21 in data set [5]; 4.55 in data set [1]; 4.42 in data set [6]; 1.81 in data set [7]. In addition, the fold change (FC) in data set [2] turned out to be 6.96; in [8], 17.7.

As for `CN(C)c1cccc(-c2nc(-c3ccc4c(c3)[nH]c(=O)n4C3CCCC3)no2)c1`, the fold change (FC) came to 3.08 in data set [3]; 8.89 in [4]; 3.64 in [5]; 1.94 in data set [1]; 3.53 in [6]; 2.59 in [7]. In addition, the fold change (FC) turned out to be 5.38 in [2] and 3.06 in [8].

As for `Cc1nc2cc(-c3noc(-c4cccnc4)n3)ccc2o1`, the fold change (FC) turned out to be 3.29 in [1] and 7.08 in [2].

These data come from ChEMBL document CHEMBL3813628, “Molecular similarity guided optimization of novel Nrf2 activators with 1,2,4-oxadiazole core” (Bioorg Med Chem, 2016).
